Several values for one entry are separate records, joined by “and”; a condition that tells them apart may be missing. Identical values can stand only once. Toxic doses and inconclusive results are not listed.
Test system: P388 leukemia ip, CD2F1 mice, survival T/C
Experiment: NCI In Vivo Anticancer Drug Screen. Data for tumor model P388 Leukemia (intraperitoneal) in CD2F1 (CDF1) mice
Conditions: endpoint: median survival time, higher = longer survival
How it was run: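 Mice carrying the transplanted tumor received test compound or vehicle. Survival was recorded in each group, and the value is the treated-group measurement divided by that of the vehicle-treated control group.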

[1] = dose: 100.0 mg/kg/injection, schedule: Q01DX005 (ip), vehicle: saline
[2] = dose: 100.0 mg/kg/injection, schedule: Q04DX003 (ip), vehicle: saline with Tween-80
[3] = dose: 200.0 mg/kg/injection, schedule: Q04DX003 (ip), vehicle: saline with Tween-80
[4] = dose: 400.0 mg/kg/injection, schedule: Q04DX003 (ip), vehicle: saline with Tween-80
[5] = dose: 50.0 mg/kg/injection, schedule: Q01DX005 (ip), vehicle: Klucel (hydroxypropylcellulose) (HPC)
[6] = dose: 100.0 mg/kg/injection, schedule: Q01DX005 (ip), vehicle: Klucel (hydroxypropylcellulose) (HPC)
[7] = dose: 60.0 mg/kg/injection, schedule: Q01DX005 (ip), vehicle: Klucel (hydroxypropylcellulose) (HPC)
[8] = dose: 120.0 mg/kg/injection, schedule: Q01DX005 (ip), vehicle: Klucel (hydroxypropylcellulose) (HPC)
[9] = dose: 100.0 mg/kg/injection, schedule: Q04DX003 (ip), vehicle: Klucel (hydroxypropylcellulose) (HPC)
[10] = dose: 240.0 mg/kg/injection, schedule: Q01DX005 (ip), vehicle: Klucel (hydroxypropylcellulose) (HPC)
[11] = dose: 60.0 mg/kg/injection, schedule: Q01DX005 (ip), vehicle: saline with Tween-80
[12] = dose: 120.0 mg/kg/injection, schedule: Q01DX005 (ip), vehicle: saline with Tween-80
[13] = dose: 240.0 mg/kg/injection, schedule: Q01DX005 (ip), vehicle: saline with Tween-80
[14] = dose: 50.0 mg/kg/injection, schedule: Q01DX009 (ip), vehicle: saline
[15] = dose: 3.12 mg/kg/injection, schedule: Q01DX009 (ip), vehicle: saline
[16] = dose: 6.25 mg/kg/injection, schedule: Q01DX009 (ip), vehicle: saline
[17] = dose: 12.5 mg/kg/injection, schedule: Q01DX009 (ip), vehicle: saline
[18] = dose: 25.0 mg/kg/injection, schedule: Q01DX009 (ip), vehicle: saline

SMILES: COC(=O)[C@@]12OC[C@]34[C@H]([C@@H](O)[C@@H]1O)[C@@]1(C)CC(=O)C(OC(=O)CC(=O)OC5=C(C)[C@@H]6C[C@H]7OC(=O)[C@H](OC(=O)C=C(C)C)[C@H]8[C@]9(C(=O)OC)OC[C@]78[C@H]([C@@H](O)[C@@H]9O)[C@@]6(C)CC5=O)=C(C)[C@@H]1C[C@H]3OC(=O)[C@H](OC(=O)C=C(C)C)[C@@H]24
- T/C (dose: 0.3 mg/kg/injection, schedule: Q01DX009 (ip), vehicle: saline with Tween-80): 106 % of control
- T/C (dose: 0.6 mg/kg/injection, schedule: Q01DX009 (ip), vehicle: saline with Tween-80): 107 % of control
- T/C (dose: 0.9 mg/kg/injection, schedule: Q01DX009 (ip), vehicle: saline with Tween-80): 113 % of control

SMILES: O=C1OC(CCc2ccccc2O)c2ccccc21 (stereo not given)
- T/C (dose: 50.0 mg/kg/injection, schedule: Q01DX005 (ip), vehicle: saline with Tween-80): 89 % of control
- T/C (dose: 100.0 mg/kg/injection, schedule: Q01DX005 (ip), vehicle: saline with Tween-80): 99 % of control
- T/C (dose: 200.0 mg/kg/injection, schedule: Q01DX005 (ip), vehicle: saline with Tween-80): 93 % of control

SMILES: CCCN(CCC)CC1CN(/N=C/c2ccc([N+](=O)[O-])o2)C(=O)O1 (stereo not given)
- T/C (dose: 50.0 mg/kg/injection, schedule: Q01DX005 (ip), vehicle: saline): 108 % of control
- T/C [1]: 100 % of control
- T/C (dose: 200.0 mg/kg/injection, schedule: Q01DX005 (ip), vehicle: saline): 108 % of control

SMILES: CC1C=CC(C)N(C(N)=O)N1C(N)=O (stereo not given)
- T/C (dose: 100.0 mg/kg/injection, schedule: Q01DX001 (ip), vehicle: saline with Tween-80): 98 % of control
- T/C (dose: 200.0 mg/kg/injection, schedule: Q01DX001 (ip), vehicle: saline with Tween-80): 100 % of control
- T/C (dose: 400.0 mg/kg/injection, schedule: Q01DX001 (ip), vehicle: saline with Tween-80): 91 % of control

SMILES: N=C1CCCS1
- T/C (dose: 25.0 mg/kg/injection, schedule: Q01DX005 (ip), vehicle: saline): 115 % of control
- T/C [1]: 150 % of control

SMILES: CCOC(=O)c1ccc(NC(=O)Nc2cc(Cl)ncn2)cc1
- T/C (dose: 50.0 mg/kg/injection, schedule: Q01DX009 (ip), vehicle: Klucel (hydroxypropylcellulose) (HPC)): 100 % of control
- T/C (dose: 100.0 mg/kg/injection, schedule: Q01DX009 (ip), vehicle: Klucel (hydroxypropylcellulose) (HPC)): 99 % of control
- T/C (dose: 200.0 mg/kg/injection, schedule: Q01DX009 (ip), vehicle: Klucel (hydroxypropylcellulose) (HPC)): 91 % of control

SMILES: COc1ccc(NC(=S)N(C)C)cc1
- T/C [2]: 95 % of control
- T/C [3]: 100 % of control
- T/C [4]: 95 % of control

SMILES: O=C1NC(=O)C2C1C1C(=O)NC(=O)C21 (stereo not given)
- T/C (dose: 25.0 mg/kg/injection, schedule: Q01DX009 (ip), vehicle: saline with Tween-80): 94 % of control
- T/C (dose: 50.0 mg/kg/injection, schedule: Q01DX009 (ip), vehicle: saline with Tween-80): 94 % of control
- T/C (dose: 100.0 mg/kg/injection, schedule: Q01DX009 (ip), vehicle: saline with Tween-80): 103 % of control

SMILES: C[N+]1([O-])CC[N+](C)([O-])CC1 (stereo not given)
- T/C (dose: 60.0 mg/kg/injection, schedule: Q01DX005 (ip), vehicle: saline): 103 % of control
- T/C (dose: 120.0 mg/kg/injection, schedule: Q01DX005 (ip), vehicle: saline): 96 % of control
- T/C (dose: 240.0 mg/kg/injection, schedule: Q01DX005 (ip), vehicle: saline): 100 % of control

SMILES: CC1=CC(c2c(O)cc(O)c(C(=O)CCc3ccccc3)c2O)C(C(C)C)CC1 (stereo not given)
- T/C (dose: 3.75 mg/kg/injection, schedule: Q01DX005 (ip), vehicle: Klucel + Tween-80): 94 % of control
- T/C (dose: 7.5 mg/kg/injection, schedule: Q01DX005 (ip), vehicle: Klucel + Tween-80): 103 % of control
- T/C (dose: 15.0 mg/kg/injection, schedule: Q01DX005 (ip), vehicle: Klucel + Tween-80): 97 % of control
- T/C (dose: 30.0 mg/kg/injection, schedule: Q01DX005 (ip), vehicle: Klucel + Tween-80): 98 % of control

SMILES: O=C(Nc1ccccc1)/C(N=Nc1ccc([N+](=O)[O-])cc1Cl)=N/Nc1ccc([N+](=O)[O-])cc1Cl
- T/C [5]: 111 % of control
- T/C [6]: 109 % of control

SMILES: CC1(c2ccccc2)NN1
- T/C (dose: 100.0 mg/kg/injection, schedule: Q04DX002 (ip), vehicle: saline with Tween-80): 94 % of control
- T/C (dose: 200.0 mg/kg/injection, schedule: Q04DX002 (ip), vehicle: saline with Tween-80): 95 % of control
- T/C (dose: 400.0 mg/kg/injection, schedule: Q04DX002 (ip), vehicle: saline with Tween-80): 94 % of control

SMILES: CC[N+](CC)=c1ccc2nc3c(cc(Nc4ccccc4)c4ccccc43)oc-2c1.[Cl][Zn][Cl]
- T/C [7]: 98 % of control
- T/C [8]: 107 % of control

SMILES: COc1ccc(C(SCC(N)C(=O)O)(c2ccccc2)c2ccccc2)cc1 (stereo not given)
- T/C (dose: 66.0 mg/kg/injection, schedule: Q04DX003 (ip), vehicle: Klucel (hydroxypropylcellulose) (HPC)): 105 % of control
- T/C [9]: 150 % of control

SMILES: Clc1ccc(Nc2c3ccccc3nc3c2cnn3-c2ccccc2)cc1
- T/C [7]: 89 % of control
- T/C [8]: 99 % of control and 93 % of control
- T/C [10]: 100 % of control and 90 % of control

SMILES: CC1=CC(=Nc2ccc(N(CCCl)CCCl)cc2)C(C)=C(C)C1=O
- T/C (dose: 100.0 mg/kg/injection, schedule: Q01DX001 (ip), vehicle: Klucel (hydroxypropylcellulose) (HPC)): 116 % of control and 123 % of control

SMILES: CCCCc1c(OC(=O)N(C)C)c(C#N)c2n(C)c3ccccc3n2c1=O
- T/C [11]: 101 % of control and 86 % of control
- T/C [12]: 95 % of control
- T/C [13]: 93 % of control and 96 % of control

SMILES: COc1cc(CCC(=O)O)on1
- T/C [14]: 101 % of control
- T/C (dose: 100.0 mg/kg/injection, schedule: Q01DX009 (ip), vehicle: saline): 109 % of control
- T/C (dose: 200.0 mg/kg/injection, schedule: Q01DX009 (ip), vehicle: saline): 108 % of control

SMILES: CC(C)CCCC(C)C1CCC2C3CC=C4CC(O)CCC4(C)C3CCC12C (stereo not given) (tested in a mixture with another compound)
- T/C [15]: 87 % of control
- T/C [16]: 92 % of control
- T/C [17]: 94 % of control
- T/C [18]: 94 % of control

SMILES: CN(C)CC(CN(C)C)C(=O)c1ccccc1
- T/C [15]: 103 % of control and 105 % of control
- T/C [16]: 105 % of control (2×) and 122 % of control
- T/C [17]: 107 % of control and 117 % of control and 112 % of control
- T/C [18]: 117 % of control [middle of 5 runs]
- T/C [14]: 124 % of control

SMILES: CC1CCC=CC(=O)C1 (stereo not given)
- T/C [9]: 102 % of control
- T/C (dose: 200.0 mg/kg/injection, schedule: Q04DX003 (ip), vehicle: Klucel (hydroxypropylcellulose) (HPC)): 108 % of control

SMILES: COc1cc2c(cc1OC)[C@H](c1cc(OC)c3c(c1)OCO3)[C@H]1C(=O)OCC1C2 (stereo not given in full)
- T/C (dose: 15.0 mg/kg/injection, schedule: Q01DX005 (ip), vehicle: saline with Tween-80): 89 % of control
- T/C (dose: 30.0 mg/kg/injection, schedule: Q01DX005 (ip), vehicle: saline with Tween-80): 88 % of control
- T/C [11]: 90 % of control and 92 % of control
- T/C [12]: 98 % of control
- T/C [13]: 99 % of control

SMILES: COc1ccc(-c2cc(=O)c3c(O)cc(OC)cc3o2)cc1
- T/C [2]: 95 % of control
- T/C [3]: 90 % of control
- T/C [4]: 90 % of control

SMILES: CC(=O)OC(C(=O)O)N1C(=O)C2C3C=CC(C2C1=O)C1C2C(=O)N(C(OC(C)=O)C(=O)O)C(=O)C2C31 (stereo not given)
- T/C (dose: 25.0 mg/kg/injection, schedule: Q01DX009 (ip), vehicle: water): 103 % of control
- T/C (dose: 50.0 mg/kg/injection, schedule: Q01DX009 (ip), vehicle: water): 110 % of control
- T/C (dose: 100.0 mg/kg/injection, schedule: Q01DX009 (ip), vehicle: water): 110 % of control and 113 % of control and 123 % of control

SMILES: CCN(CC)CCOc1cccc(NC(=O)CN(CC)CC)c1
- T/C (dose: 15.0 mg/kg/injection, schedule: Q01DX005 (ip), vehicle: Klucel (hydroxypropylcellulose) (HPC)): 106 % of control
- T/C (dose: 30.0 mg/kg/injection, schedule: Q01DX005 (ip), vehicle: Klucel (hydroxypropylcellulose) (HPC)): 103 % of control
- T/C [7]: 105 % of control and 96 % of control

SMILES: O=C(O)COc1ccc(F)c(F)c1
- T/C [7]: 101 % of control and 104 % of control
- T/C [8]: 106 % of control and 94 % of control
- T/C [10]: 100 % of control and 86 % of control

SMILES: COc1cc(C2OCC3C(c4cc(OC)c(OC)c(OC)c4)OCC23)cc(OC)c1OC (stereo not given)
- T/C [5]: 102 % of control
- T/C [6]: 100 % of control
- T/C (dose: 200.0 mg/kg/injection, schedule: Q01DX005 (ip), vehicle: Klucel (hydroxypropylcellulose) (HPC)): 102 % of control
